From ChEMBL document CHEMBL1158057, “Hydroxylated gedunin derivatives from Cedrela sinensis” (J Nat Prod, 2006)
In brackets after ≈: the same amount, converted by molar mass.

These compounds were tested on P388 (assay: Cytotoxicity against mouse P388 cells).
Format: functional, cell-based

SMILES | IC50
CC(=O)O[C@H]1C[C@@]2(C)[C@H](c3ccoc3)OC(=O)[C@H]3O[C@]32[C@@]2(C)[C@H]1[C@@]1(C)C=CC(=O)C(C)(C)[C@@H]1C[C@H]2OC(C)=O | 3.8 µg/mL (≈ 7.03 µM)
CC1(C)C(=O)C=C[C@]2(C)[C@H]3[C@@H](O)C[C@@]4(C)[C@H](c5ccoc5)OC(=O)[C@H]5O[C@]54[C@]3(C)[C@H](O)C[C@@H]12 | 7.8 µg/mL (≈ 17.1 µM)
CC(=O)O[C@@H]1C[C@H]2C(C)(C)C(=O)C=C[C@]2(C)[C@H]2C(=O)C[C@@]3(C)[C@H](c4ccoc4)OC(=O)[C@H]4O[C@]43[C@@]21C | 3 µg/mL (≈ 6.04 µM)
CC(=O)O[C@@H]1C[C@@]2(C)[C@H](c3ccoc3)OC(=O)[C@H]3O[C@]32[C@@]2(C)[C@H]1[C@@]1(C)C=CC(=O)C(C)(C)[C@@H]1C[C@H]2OC(C)=O | 63 µg/mL (≈ 117 µM)
CC1(C)C(=O)C=C[C@]2(C)[C@H]3[C@H](O)C[C@@]4(C)[C@H](c5ccoc5)OC(=O)[C@H]5O[C@]54[C@]3(C)[C@H](O)C[C@@H]12 | > 100 µg/mL
CC(=O)O[C@@H]1C[C@H]2C(C)(C)C(=O)C=C[C@]2(C)[C@H]2[C@@H](O)C[C@@]3(C)[C@H](c4ccoc4)OC(=O)[C@H]4O[C@]43[C@@]21C | 5.4 µg/mL (≈ 10.8 µM)
CC(=O)O[C@@H]1C[C@H]2C(C)(C)C(=O)C=C[C@]2(C)[C@H]2CC[C@@]3(C)[C@H](c4ccoc4)OC(=O)[C@H]4O[C@]43[C@@]21C [GEDUNIN] | 3.3 µg/mL (≈ 6.84 µM)
CC(=O)O[C@@H]1C[C@H]2C(C)(C)C(=O)C=C[C@]2(C)[C@H]2[C@H](O)C[C@@]3(C)[C@H](c4ccoc4)OC(=O)[C@H]4O[C@]43[C@@]21C | 71 µg/mL (≈ 142 µM)
CC1(C)C(=O)C=C[C@]2(C)[C@H]3CC[C@@]4(C)[C@H](c5ccoc5)OC(=O)[C@H]5O[C@]54[C@]3(C)[C@H](O)C[C@@H]12 [DEACETYLGEDUNIN] | 4.5 µg/mL (≈ 10.2 µM)
